Legend:
[1] = test system: rat osteoclasts; assay: Rat osteoclast resorption assay; conditions: read-out: Cell-based % Inh. @ 1 μM Rat
Procedure: Bone resorption was studied using a model where mature osteoclasts derived from rat bone were cultured on bovine bone slices for 3 days and allowed to resorb bone in the presence of inhibitor, positive control (E-64) or vehicle. More specifically, tibia, femori and humeri were removed from 1 day old rat pups. The endosteal surfaces of the bones were scraped with a scapelto release osteoclasts into the culture medium and the osteoclasts were allowed to attach to bovine bone slices. After the culture period, bone collagen degradation products were quantified from the culture medium as an index of bone resorption. The assay was performed by Pharmatest Services Ltd, Itilinen Pitkakatu 4C, Turku, Finland.

[2] = Plasma incubations (human plasma stability); type: in vitro ADME; conditions: 37° C.
Procedure: Human and rat plasma were purchased from Innovative Research Inc. (Southfield. MI, USA). Compounds were taken from 5 mM DMSO stock solutions and added to plasma, which had previously been incubated at 37° C., to give a final concentration of 25 μM and re-incubated. Aliquots were removed at 2 and 60 minutes and quenched with an equal volume of cold acetonitrile. After mixing vigorously, the precipitated protein matter was removed by filtration (Multiscreen Solvinert filter plates, Millipore, Bedford, Mass., USA) and the filtrate analysed by reverse phase HPLC with mass spectrometric detection, using single ion monitoring of the [M+H]^+ species. Metabolic turnover was determined by comparison of peak areas from the ion chromatograms of the parent compound at 2 and 60 minutes and expressed as percent remaining at 1 hour: […]

[3] = molecular target: T1, Human recombinant cathepsin K (Homo sapiens, UniProt P43235); assay: In vitro cathepsin Ki inhibition measurements; type: biochemical; conditions: read-out: In vitro Ki (nM) vs Cath K
T1 construct: purchased B. Turk, Josef, Stefan Institute, Ljubljana, Slovenia
T1 sequence (P43235 115-329): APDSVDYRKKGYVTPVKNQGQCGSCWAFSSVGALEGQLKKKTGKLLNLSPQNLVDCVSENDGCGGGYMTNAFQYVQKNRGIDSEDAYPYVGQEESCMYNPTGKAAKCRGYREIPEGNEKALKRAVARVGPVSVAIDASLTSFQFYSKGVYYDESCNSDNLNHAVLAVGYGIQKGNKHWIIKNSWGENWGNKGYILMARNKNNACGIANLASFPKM
Procedure: Stock solutions of substrate or inhibitor were made up to 10 mM in 100% dimethylsulfoxide (DMSO) (Rathburns, Glasgow, U.K.) and diluted as appropriately required. In all cases the DMSO concentration in the assays was maintained at less than 1% (vol./vol.). The equilibrium inhibition constants (Ki^ss) for each compound were measured under steady-state conditions monitoring enzyme activity as a function of inhibitor concentration. The values were calculated on the assumption of pure competitive behaviour (Cornish-Bowden, A. Fundamentals of enzyme kinetics Portland Press; 1995, 93-128.). Human recombinant cathepsin K (0.25 nM final; B. Turk, Josef, Stefan Institute, Ljubljana, Slovenia), was routinely assayed in 100 mM sodium acetate; pH 5.5 containing 1 mM EDTA, 10 mM L-cysteine and 1.8 μM Z-Leu-Arg-AMC ([S]=KM).
The apparent inhibition constant (Ki) for each compound was determined on the basis that inhibition was reversible and occurred by a pure-competitive mechanism. The Ki values were calculated, from the dependence of enzyme activity as a function of inhibitor concentration, by direct regression analysis (Prism v 3.02) using Equation 2 (Cornish-Bowden, A., 1995).
In situations where the apparent dissociation constant (Ki^app) approached the enzyme concentrations, the Ki^app values were calculated using a quadratic solution in the form described by Equation 3 (Morrison, J. F. Trends Biochem. Sci., 7, 102-105, 1982; Morrison, J. F. Biochim. Biophys. Acta, 185, 269-286, 1969; Stone, S. R. and Hofsteenge, J. Biochemistry, 25, 4622-4628, 1986).
In Equation 3 ‘vi’ is the observed residual activity, ‘F’ is the difference between the maximum activity (i.e. in the absence of inhibitor) and minimum enzyme activity, ‘Eo’ is the total enzyme concentration, ‘Ki^app’ is the apparent dissociation constant and ‘Io’ is the inhibitor concentration. Curves were fitted by non-linear regression analysis (Prism) using a fixed value for the enzyme concentration. Equation 4 was used to account for the substrate kinetics, where ‘Ki’ is the inhibition constant, ‘[So]’ is the initial substrate concentration and ‘KM^app’ is the apparent macroscopic binding (Michaelis) constant for the substrate (Morrison, 1982).

[4] = test system: human osteoclasts; assay: Human osteoclast resorption assay; conditions: human osteoclast activity, read-out: Cell-based % Inh. @ 1 μM Human
Procedure: Bone resorption was studied using a model where human osteoclast precursor cells were cultured on bovine bone slices for 9 days and allowed to differentiate into bone-resorbing osteoclasts. The formed mature osteoclasts were then allowed to resorb bone. The assay was performed by Pharmatest Services Ltd, ItAinen Pitkakatu 4C, Turku, Finland. After the culture period, bone collagen degradation products were quantified from the culture medium as an index of bone resorption. Inhibitor compounds were added into the cell cultures after the differentiation period and their effects on the resorbing activity of mature osteoclasts were determined. The studies included a baseline group without added compounds and a positive control group where a potent cathepsin K inhibitor E-64 was added.
Human peripheral blood monocytes were suspended to culture medium and allowed to attach to bovine bone slices. The bone slices were transferred into 96-well tissue culture plates containing culture medium with appropriate amounts of important growth factors favouring osteoclast differentiation, including M-CSF, RANK-ligand and TGF-β. The cells were incubated in a CO2 incubator in humidified atmosphere of 95% air and 5% carbon dioxide at 37° C. At day 7 when osteoclast differentiation was complete, the culture medium was replaced with culture medium containing conditions favouring osteoclast activity. The cell culture was continued for an additional 2 days, during which the formed mature osteoclasts were allowed to resorb bone in the presence of vehicle, control inhibitor (E64) or test compounds. At the end of the culture, bone collagen degradation products released into the culture medium were determined using a commercially available ELISA method (CrossLaps® for culture, Nordic Bioscience, Herlev, Denmark) as an index of bone resorption (see Bagger, Y. Z., et al, J. Bone. Miner. Res. 14 (suppl. 1), S370).

[5] = Liver microsomal incubations (HLM stability); type: in vitro ADME; conditions: human liver microsomes
Procedure: Human and rat liver microsomes were purchased from BD Gentest (Woburn, Mass., USA) and β-nicotinamide adenine dinucleotide 2′-phosphate reduced tetrasodium salt (NADPH) was purchased from Sigma-Aldrich (Poole, Dorset, UK). All liver microsome incubations were carried out in 50 mM potassium phosphate buffer at pH 7.4, with a final microsomal protein concentration of 0.5 mg/mL. Compounds were taken from 5 mM DMSO stock solutions and diluted in incubation buffer to give a final concentration of […] with a final DMSO concentration of 0.5% v/v. In brief, compounds were added to the incubation buffer along with the liver microsomes and incubated at 37° C. for 10 minutes. The reaction was then initiated by the addition of NADPH, previously dissolved in incubation buffer, to give a final concentration of 1 mM and re-incubated at 37° C. Aliquots were removed at 2 and 60 minutes and quenched with an equal volume of cold acetonitrile. After mixing vigorously, the precipitated protein matter was removed by filtration (Multiscreen Solvinert filter plates, Millipore, Bedford, Mass., USA) and the filtrate analysed by reverse phase HPLC with mass spectrometric detection, using single ion monitoring of the [M+H]^+ species. Metabolic turnover was determined by comparison of peak areas from the ion chromatograms of the parent compound at 2 and 60 minutes and expressed as percent remaining at 1 hour.

[6] = LogD determinations (shake-flask, octanol/PBS); type: physicochemical; conditions: 1-octanol/phosphate buffered saline; pH 7.4; ion-count method
Procedure: LogD(PBS) determinations were performed in 96 well microtitre plates using a miniaturised “shake-flask” method. In brief, compounds were taken from 10 mM DMSO stock solutions and added to wells containing equal volumes of phosphate buffered saline (10 mM; pH 7.4) (PBS) and 1-octanol (Sigma-Aldrich, Poole, Dorset, UK) to give a final concentration of 50 μM. The plates were then capped and mixed vigorously for 1 hour on a microtitre plate shaker, after which they were left to stand, allowing the PBS and octanol phases to separate. The PBS layer was analysed by reverse phase HPLC with mass spectrometric detection, using single ion monitoring of the [M+H]^+ species. LogD(PBS) was determined by comparison of the peak area from the ion chromatogram of the compound in the PBS phase with that of a 50 μM standard of the same compound dissolved in acetonitrile/water (50:50) and calculated using the following formula: […]
Where AUCstd and AUCpbs are the peak areas from the standard and test ion chromatograms respectively.

[7] = test system: human osteoclasts; conditions: human osteoclast, literature value; cited from earlier work

Human Plasma Stability % rem. @ 1 hr [2] | Ki [3] | HLM % rem. @ 1 hr [5] | logD [6] | SMILES | inhibition at 1 µM [1] | inhibition at 1 µM [4] | Cell-based % Inh. @ 1 μM Human (Lit.) [7]
91% | 5 nM | 94% | 1.15 | CCC(C)[C@H](NC(=O)c1ccc(N2CCN(C)CC2)cc1)C(=O)N1CC[C@H]2OCC(=O)[C@H]21 (stereo in doubt) [Example 9, N-((2S,3S)-3-methyl-1-oxo-1-((3aS,6aR)-3-oxodihydro-2H-furo [3,2-b]pyrrol-4(5H,6H,6aH)-yl)pentan-2-yl)-4-(4-methylpiperazin-1-yl)benzamide] | 10% | 77% | –
95% | – | 95% | – | CC(C)C[C@H](NC(=O)c1ccc(N2CCN(C)CC2)cc1)C(=O)N1CC[C@H]2OCC(=O)[C@H]21 [Example 1, reference compound] | 43% | 55% | –
93% | – | 88% | – | CCN1CCN(c2ccc(C(=O)N[C@@H](CC(C)C)C(=O)N3CC[C@H]4OCC(=O)[C@H]43)cc2)CC1 [Example 2, 4-(4-ethylpiperazin-1-yl)-N—((S)-4-methyl-1-oxo-1-((3aS,6aR)-3-oxodihydro-2H-furo[3,2-b]pyrrol-4(5H,6H,6aH)-yl)pentan-2-yl)benzamide, reference compound] | 40% | 58% | –
95% | 4 nM | 96% | 0.87 | CN1CCN(c2ccc(C(=O)N[C@@H](CC(C)(C)C)C(=O)N3CC[C@H]4OCC(=O)[C@H]43)cc2)CC1 [Example 3, N—((S)-4,4-dimethyl-1-oxo-1-((3aS,6aR)-3-oxo-dihydro-2H-furo[3,2-b]pyrrol-4(5H,6H,6aH)-yl)pentan-2-yl)-4-(4-methylpiperazin-1-yl)benzamide] | 75% | 79% | –
92% | 12 nM | 82% | 1.87 | CCCN1CCN(c2ccc(C(=O)N[C@@H](CC(C)(C)C)C(=O)N3CC[C@H]4OCC(=O)[C@H]43)cc2)CC1 [Example 4, N—((S)-4,4-dimethyl-1-oxo-1-((3aS,6aR)-3-oxo-dihydro-2H-furo[3,2-b]pyrrol-4(5H,6H,6aH)-yl)pentan-2-yl)-4-(4-propylpiperazin-1-yl)benzamide] | 72% | 75% | –
90% | 14 nM | 92% | 1.51 | COCCN1CCN(c2ccc(C(=O)N[C@@H](CC(C)(C)C)C(=O)N3CC[C@H]4OCC(=O)[C@H]43)cc2)CC1 [Example 5, N—((S)-4,4-dimethyl-1-oxo-1-((3aS,6aR)-3-oxo-dihydro-2H-furo[3,2-b]pyrrol-4(5H,6H,6aH)-yl)pentan-2-yl)-4-(4-(2-methoxyethyl)piperazin-1-yl)benzamide] | 79% | 72% | –
93% | 6 nM | 89% | 0.81 | CN1CCN(c2ccc(C(=O)N[C@H](C(=O)N3CC[C@H]4OCC(=O)[C@H]43)C(C)(C)C)cc2)CC1 [Example 8, N—((S)-3,3-dimethyl-1-oxo-1-((3aS,6aR)-3-oxo-dihydro-2H-furo[3,2-b]pyrrol-4(5H,6H,6aH)-yl)butan-2-yl)-4-(4-methylpiperazin-1-yl)benzamide] | 20% | 82% | –
75% | – | 70% | – | CC(C)C[C@H](NC(=O)c1ccc(C(C)(C)C)cc1)C(=O)N1CC[C@H]2OCC(=O)[C@H]21 [Prior art compound 23, reference compound] | – | – | Lit. 60%
